The results in this text go back to US20240199587A1, “HETEROCYCLIC COMPOUNDS” (Hoffmann-La Roche Inc., priority 2021, published 2024).

This assay addresses T1, MAGL (Homo sapiens, UniProt Q99685).
T1 sequence (Q99685 1-303): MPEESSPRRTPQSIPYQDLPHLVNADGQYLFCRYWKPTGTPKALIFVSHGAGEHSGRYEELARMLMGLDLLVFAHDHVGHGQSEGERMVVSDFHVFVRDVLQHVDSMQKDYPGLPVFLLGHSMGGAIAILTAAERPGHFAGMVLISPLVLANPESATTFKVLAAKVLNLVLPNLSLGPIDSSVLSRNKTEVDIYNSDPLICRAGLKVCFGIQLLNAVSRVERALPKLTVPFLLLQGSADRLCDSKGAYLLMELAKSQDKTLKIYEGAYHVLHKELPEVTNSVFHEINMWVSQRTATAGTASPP
In words: 2-AG assay (MAGL inhibitory activity, hydrolysis of 2-arachidonoylglycerol to arachidonic acid followed by mass spectrometry). The settings on record: 8 μM 2-arachidonoylglycerol, 15 min pre-incubation, 30 min incubation at RT, RapidFire MS readout. The assay is classed as biochemical. In outline:
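Arachidonic acid released from 8 μM 2-arachidonoylglycerol was quantified by online SPE triple-quadrupole MS (negative ESI, 303.1→259.1), normalised to d8-arachidonic acid internal standard. Reaction ran 30 min at RT after 15 min RT compound pre-incubation with […] MAGL in TRIS/EDTA/Tween-20 buffer, 2.5% DMSO.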
`O=C(N1CC(OCc2ccc(F)cc2C(F)(F)F)C1)N1CC2(CC(n3cnc(C4CC4)n3)C2)C1` [Example 78, (6-(3-cyclopropyl-1H-1,2,4-triazol-1-yl)-2-azaspiro[3.3]heptan-2-yl)(3-((4-fluoro-2-(trifluoromethyl)benzyl)oxy)azetidin-1-yl)methanone] showed an IC50 of 12.2 nM. The value for `O=C(N1CC2(CC(Oc3cc(F)ccc3F)C2)C1)N1CC2(CC(n3cnc(C4CC4)n3)C2)C1` [Example 79, (6-(3-cyclopropyl-1H-1,2,4-triazol-1-yl)-2-azaspiro[3.3]heptan-2-yl)(6-(2,5-difluorophenoxy)-2-azaspiro[3.3]heptan-2-yl)methanone] was 1.3 nM.

With `O=C(N1CC2(CC(Oc3ccc(C(F)(F)F)nc3)C2)C1)N1CC2(CC(n3cnc(C4CC4)n3)C2)C1` [Example 80, (6-(3-cyclopropyl-1H-1,2,4-triazol-1-yl)-2-azaspiro[3.3]heptan-2-yl)(6-((6-(trifluoromethyl)pyridin-3-yl)oxy)-2-azaspiro[3.3]heptan-2-yl)methanone], the IC50 is 2.2 nM. The value for `O=C(N1CC2(CC(Oc3cncc(C(F)(F)F)c3)C2)C1)N1CC2(CC(n3cnc(C4CC4)n3)C2)C1` [Example 81, (6-(3-cyclopropyl-1H-1,2,4-triazol-1-yl)-2-azaspiro[3.3]heptan-2-yl)(6-((5-(trifluoromethyl)pyridin-3-yl)oxy)-2-azaspiro[3.3]heptan-2-yl)methanone] was 1.8 nM. The value for `O=C(N1CC2(CC(Oc3cncc(Cl)c3)C2)C1)N1CC2(CC(n3cnc(C4CC4)n3)C2)C1` [Example 82, (6-((5-chloropyridin-3-yl)oxy)-2-azaspiro[3.3]heptan-2-yl)(6-(3-cyclopropyl-1H-1,2,4-triazol-1-yl)-2-azaspiro[3.3]heptan-2-yl)methanone] was 3.7 nM. Take `O=C(N1CC2(CC(Oc3ccc(Cl)nc3)C2)C1)N1CC2(CC(n3cnc(C4CC4)n3)C2)C1` [Example 83, (6-((6-chloropyridin-3-yl)oxy)-2-azaspiro[3.3]heptan-2-yl)(6-(3-cyclopropyl-1H-1,2,4-triazol-1-yl)-2-azaspiro[3.3]heptan-2-yl)methanone]: the IC50 turned out to be 5.2 nM.

For `O=C(N1CC(c2ccc(OC(F)(F)F)cc2Cl)C1)N1CC2(CC(n3cnc(C4CC4)n3)C2)C1` [Example 84, [3-[2-chloro-4-(trifluoromethoxy)phenyl]azetidin-1-yl]−[6-(3-cyclopropyl-1,2,4-triazol-1-yl)-2-azaspiro[3.3]heptan-2-yl]methanone], half-maximal inhibition (IC50) was put at 0.6 nM. In turn, `O=C(N1CC(c2cc(F)c(OC(F)(F)F)c(F)c2)C1)N1CC2(CC(n3cnc(C4CC4)n3)C2)C1` [Example 85, [6-(3-cyclopropyl-1,2,4-triazol-1-yl)-2-azaspiro[3.3]heptan-2-yl]-[3-[3,5-difluoro-4-(trifluoromethoxy)phenyl]azetidin-1-yl]methanone] registered an IC50 of 0.4 nM. On to `O=C(N1CC(c2ccc(OC(F)(F)F)cc2F)C1)N1CC2(CC(n3cnc(C4CC4)n3)C2)C1` [Example 86, [6-(3-cyclopropyl-1,2,4-triazol-1-yl)-2-azaspiro[3.3]heptan-2-yl]-[3-[2-fluoro-4-(trifluoromethoxy)phenyl]azetidin-1-yl]methanone], for which the IC50 worked out at 0.4 nM. Turning to `CC(C)(C)c1nc(C2CN(C(=O)N3CC4(CC(n5cnc(C6CC6)n5)C4)C3)C2)cs1` [Example 87, [3-(2-tert-butylthiazol-4-yl)azetidin-1-yl]-[6-(3-cyclopropyl-1,2,4-triazol-1-yl)-2-azaspiro[3.3]heptan-2-yl]methanone], the IC50 was 6.5 nM. As for `CC(C)(C)Cc1nc(-c2ccc(C(=O)N3CC4(CC(n5cnc(C6CC6)n5)C4)C3)cc2)no1` [Example 88, [6-(3-cyclopropyl-1,2,4-triazol-1-yl)-2-azaspiro[3.3]heptan-2-yl]−[4-[5-(2,2-dimethylpropyl)-1,2,4-oxadiazol-3-yl]phenyl]methanone], half-maximal inhibition (IC50) was put at 1.1 nM. Molecule `CC(C)(C)c1nc(-c2ccc(C(=O)N3CC4(CC(n5cnc(C6CCC6)n5)C4)C3)cc2)no1` [Example 90, [4-(5-tert-butyl-1,2,4-oxadiazol-3-yl)phenyl]−[6-(3-cyclobutyl-1,2,4-triazol-1-yl)-2-azaspiro[3.3]heptan-2-yl]methanone] came in with an IC50 of 4 nM. The value for `O=C(N1CC(C#Cc2ccc(OC(F)F)cc2)C1)N1CC2(CC(n3cnc(C4CC4)n3)C2)C1` [Example 92, [6-(3-cyclopropyl-1,2,4-triazol-1-yl)-2-azaspiro[3.3]heptan-2-yl]-[3-[2-[4-(difluoromethoxy)phenyl]ethynyl]azetidin-1-yl]methanone] was 11.7 nM; that for `O=C(N1CC(Oc2cccc(C3CC3)c2Cl)C1)N1CC2(CC(n3cnc(C4CC4)n3)C2)C1` [Example 94, (3-(2-chloro-3-cyclopropylphenoxy)azetidin-1-yl)(6-(3-cyclopropyl-1H-1,2,4-triazol-1-yl)-2-azaspiro[3.3]heptan-2-yl)methanone] was 0.2 nM; that for `O=C(N1CC(Oc2ccc(Cl)c(C3CC3)c2)C1)N1CC2(CC(n3cnc(C4CC4)n3)C2)C1` [Example 95, (3-(4-chloro-3-cyclopropylphenoxy)azetidin-1-yl)(6-(3-cyclopropyl-1H-1,2,4-triazol-1-yl)-2-azaspiro[3.3]heptan-2-yl)methanone] was 1.2 nM. As to `O=C(N1CC(Oc2ccc(C(F)(F)F)cc2F)C1)N1CC2(CC(n3cnc(C4CC4)n3)C2)C1` [Example 96, (6-(3-cyclopropyl-1H-1,2,4-triazol-1-yl)-2-azaspiro[3.3]heptan-2-yl)(3-(2-fluoro-4-(trifluoromethyl)phenoxy)azetidin-1-yl)methanone], the IC50 was found to be 2.7 nM. The value for `Cc1ccc(OC2CN(C(=O)N3CC4(CC(n5cnc(C6CC6)n5)C4)C3)C2)c(Cl)c1` [Example 97, (3-(2-chloro-4-methylphenoxy)azetidin-1-yl)(6-(3-cyclopropyl-1H-1,2,4-triazol-1-yl)-2-azaspiro[3.3]heptan-2-yl)methanone] was 3.4 nM; that for `O=C(N1CC(Oc2ccc(Cl)cc2Cl)C1)N1CC2(CC(n3cnc(C4CC4)n3)C2)C1` [Example 98, (6-(3-cyclopropyl-1H-1,2,4-triazol-1-yl)-2-azaspiro[3.3]heptan-2-yl)(3-(2,4-dichlorophenoxy)azetidin-1-yl)methanone] was 2.8 nM. The value for `O=C(N1CC(Oc2ccc(Cl)cc2F)C1)N1CC2(CC(n3cnc(C4CC4)n3)C2)C1` [Example 99, (3-(4-chloro-2-fluorophenoxy)azetidin-1-yl)(6-(3-cyclopropyl-1H-1,2,4-triazol-1-yl)-2-azaspiro[3.3]heptan-2-yl)methanone] was 9.5 nM. The value for `Cc1ccc(OC2CN(C(=O)N3CC4(CC(n5cnc(C6CC6)n5)C4)C3)C2)c(Cl)n1` [Example 100, (3-((2-chloro-6-methylpyridin-3-yl)oxy)azetidin-1-yl)(6-(3-cyclopropyl-1H-1,2,4-triazol-1-yl)-2-azaspiro[3.3]heptan-2-yl)methanone] was 79.9 nM. On to `O=C(N1CC(OCc2ccc(C(F)(F)F)cc2)C1)N1CC2(CC(n3cnc(C4CC4)c3)C2)C1` [Example 101, [6-(4-cyclopropylimidazol-1-yl)-2-azaspiro[3.3]heptan-2-yl]-[3-[[4-(trifluoromethyl)phenyl]methoxy]azetidin-1-yl]methanone], for which the IC50 is 42.1 nM. The value for `O=C(N1CC(OCc2ccc(C(F)(F)F)cc2F)C1)N1CC2(CC(n3cnc(C4CC4)c3)C2)C1` [Example 102, [6-(4-cyclopropylimidazol-1-yl)-2-azaspiro[3.3]heptan-2-yl]-[3-[[2-fluoro-4-(trifluoromethyl)phenyl]methoxy]azetidin-1-yl]methanone] was 51.4 nM; that for `O=C(N1CC(OCc2ccc(C(F)(F)F)c(F)c2)C1)N1CC2(CC(n3cnc(C4CC4)c3)C2)C1` [Example 103, [6-(4-cyclopropylimidazol-1-yl)-2-azaspiro[3.3]heptan-2-yl]-[3-[[3-fluoro-4-(trifluoromethyl)phenyl]methoxy]azetidin-1-yl]methanone] was 9.9 nM; that for `O=C(N1CC(OCc2ccc(S(F)(F)(F)(F)F)cc2)C1)N1CC2(CC(n3cnc(C4CC4)c3)C2)C1` [Example 104, [6-(4-cyclopropylimidazol-1-yl)-2-azaspiro[3.3]heptan-2-yl]-[3-[[4-(pentafluoro-λ^6-sulfanyl)phenyl]methoxy]azetidin-1-yl]methanone] was 9.7 nM. The value for `O=C(N1CC(OCc2ccc(S(F)(F)(F)(F)F)cc2F)C1)N1CC2(CC(n3cnc(C4CC4)c3)C2)C1` [Example 105, [6-(4-cyclopropylimidazol-1-yl)-2-azaspiro[3.3]heptan-2-yl]-[3-[[2-fluoro-4-(pentafluoro-λ^6-sulfanyl)phenyl]methoxy]azetidin-1-yl]methanone] was 3.9 nM; that for `Cc1ccc(COC2CN(C(=O)N3CC4(CC(n5cnc(C6CC6)c5)C4)C3)C2)cc1C(F)(F)F` [Example 106, [6-(4-cyclopropylimidazol-1-yl)-2-azaspiro[3.3]heptan-2-yl]-[3-[[4-methyl-3-(trifluoromethyl)phenyl]methoxy]azetidin-1-yl]methanone] was 4.1 nM; that for `O=C(N1CC(C#Cc2ccccc2C(F)F)C1)N1CC2(CC(n3cnc(C4CC4)n3)C2)C1` [Example 107, [6-(3-cyclopropyl-1,2,4-triazol-1-yl)-2-azaspiro[3.3]heptan-2-yl]-[3-[2-[2-(difluoromethyl)phenyl]ethynyl]azetidin-1-yl]methanone] was 4.7 nM.

By IC50 is commonly meant the point on the concentration scale where inhibition reaches its midpoint. A high value points to weaker potency in that assay.
